Experimental findings from US8697385B1, “Protein controlling synthesis of collagen and associated methods” (Florida State University Research Foundation, Inc., priority 2009, dated 2014) are described below.

One series relates to lung fibroblasts. The series is described as follows: Apoptosis of primary lung fibroblasts. The series is classed as cell-based. To be noted: lung fibroblasts after ML-7 treatment; without treatment 2.2%. An excerpt: To assess the role of nonmuscle myosin in collagen synthesis, we disrupted nonmuscle myosin filaments in two different cell types: primary human lung fibroblasts and primary scleroderma skin fibroblasts. These cells are responsible for lung and skin fibrosis. […] To assess the effect of ML-7 on collagen protein synthesis and secretion, we analyzed the levels of collagen α1(I) and α2(I) polypeptides in the intracellularly space and in the medium using Western blot analysis and chain-specific antibodies.^12,15,31-33 ML-7 treatment profoundly affected the secretion of type I collagen, but the effect differed in the two types of primary fibroblasts. […] To assess if the secreted α1(I) polypeptides had been secreted as disulfide-bonded homotrimers, we performed Western blot analysis under nonreducing conditions (FIG. 3d). […] However, since α2(I) polypeptide was absent in the cell medium of ML-7-treated cells, the bands must represent disulfide-bonded collagen α1(I) chains. The α2(I) antibody could not recognize the polypeptide under nonreducing conditions, so we could not directly test its presence in S—S bonded collagen. Since there are reports that ML-7 can cause apoptosis of epithelial cells, we tested if ML-7 caused apoptosis of the primary fibroblasts. […] Therefore, we concluded that increased apoptosis is not responsible for the observed effects of ML-7. […]

Series [1] has as its system lung fibroblasts and scleroderma fibroblasts. The series is described as follows: Intracellular collagen degradation with proteosome inhibitor epoxomycin, Western blot. It counts as cell-based, human. An excerpt:
FIG. 3 Disruption of nonmuscle myosin by ML-7 results in secretion of homotrimeric type I collagen. (a) ML-7 disrupts nonmuscle myosin filaments. Immunostaining of nonmuscle myosin IIB in control lung fibroblasts (CON) and in lung fibroblasts treated with ML-7 (ML-7). […] Western blot analysis of control cells (lane 1) and cells treated with ML-7 (lane 2) using anti-myosin IIB antibody (MYO IIB). Fibronectin (FIB), loading control. (c) Effect of ML-7 on collagen secretion from lung fibroblasts. Western blot analysis of cellular proteins from control cells (lane 2) and ML-7-treated cells (lane 1), and of medium proteins from control cells (lane 4) and ML-7-treated cells (lane 3). COL1A1, collagen α1(I) polypeptide; COL1A2, collagen α2(I) polypeptide; FIB, fibronectin as loading control. […] The medium samples from (c) were analyzed under reducing conditions (lanes 1 and 2) and nonreducing conditions […] with antibody specific for collagen α1(I) polypeptide. […] Intracellular collagen was analyzed by Western blot analysis using antibodies against collagen α1(I) polypeptide (COL1A1) and α2(I) polypeptide (COL1A2). […]
Protein concentration was estimated by the Bradford assay, with bovine serum albumin as standard.^51 Western blot analyses of cellular proteins were performed using 50 μg of protein. […] The medium was collected, and an aliquot was analyzed directly by Western blot analysis. […]

The structures appear in SMILES notation.

`O=S(=O)(c1cccc2c(I)cccc12)N1CCCNCC1` [ML-7]: the “percentage of apoptotic cells” value in the series on lung fibroblasts is 4.2%. Moreover, the “intracellular level of both collagen polypeptides” value in series [1] (ML-7 in combination with epoxomycin vs epoxomycin alone, lung and scleroderma fibroblasts) is “significantly increased”. The “additional (degradation) product of approximately 120 kDa” value in series [1] (epoxomycin and ML-7, not seen with epoxomycin alone) is recorded as “prominently seen”.
